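Method: 48-hour compound exposure of cells in 96-well plates, five concentrations, linear interpolation of endpoints. GI50 marks 50% less growth.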 Active and inactive are the calls of the source. Rule as the data show it: active = GI50 up to about 1.1 µM and inactive = higher.
Columns and labels:
Assay in all cases: DTP human tumour cell line panel, 48 h
NCI-H460 = test system: NCI-H460
OVCAR-8 = test system: OVCAR-8
OVCAR-3 = test system: OVCAR-3
SK-OV-3 = test system: SK-OV-3
UO-31 = test system: UO-31
SNB-78 = test system: SNB-78
HCT-116 = test system: HCT-116
COLO 205 = test system: COLO 205
EKVX = test system: EKVX
MOLT-4 = test system: MOLT-4
SK-MEL-28 = test system: SK-MEL-28
KM-20L2 = test system: KM-20L2
SNB-19 = test system: SNB-19
NCI-H226 = test system: NCI-H226
OVCAR-5 = test system: OVCAR-5
Hs-578T = test system: Hs-578T
MDA-MB-231 = test system: MDA-MB-231
UACC-62 = test system: UACC-62
IGROV-1 = test system: IGROV-1
HOP-18 = test system: HOP-18

Measured: GI50

Cc1cnc2ccc(C)c([N+](=O)[O-])c2c1NCCCN(C)C
inactive: NCI-H460 > 100 µM | OVCAR-8 > 100 µM | OVCAR-3 > 100 µM | SK-OV-3 > 100 µM | UO-31 27.2 µM | SNB-78 > 100 µM | HCT-116 74.8 µM | COLO 205 76.2 µM | EKVX > 100 µM | MOLT-4 > 100 µM | SK-MEL-28 > 100 µM | KM-20L2 91.6 µM | SNB-19 > 100 µM | NCI-H226 50 µM | OVCAR-5 > 100 µM

C[C@@H](NC(=O)[C@@H]1C[C@]1(C)COC(=O)c1cc([N+](=O)[O-])cc([N+](=O)[O-])c1)c1cccc2ccccc12
inactive: NCI-H460 > 100 µM | OVCAR-8 > 100 µM | OVCAR-3 24.3 µM | SK-OV-3 > 100 µM | Hs-578T 20 µM | UO-31 > 100 µM | MDA-MB-231 > 100 µM | HCT-116 > 100 µM | UACC-62 50 µM | COLO 205 > 100 µM | EKVX > 100 µM | MOLT-4 > 100 µM | SK-MEL-28 > 100 µM | SNB-19 > 100 µM | NCI-H226 > 100 µM | IGROV-1 70.3 µM | OVCAR-5 > 100 µM

Cc1[nH]c(-c2ccccc2)c(O)c1C(=O)OC1CC(C)CCC1C(C)C (stereo not drawn)
inactive: NCI-H460 15.3 µM | OVCAR-8 16 µM | OVCAR-3 12.7 µM | SK-OV-3 15.3 µM | Hs-578T 18.3 µM | UO-31 13.3 µM | MDA-MB-231 15.5 µM | HCT-116 14.9 µM | UACC-62 16.5 µM | COLO 205 14.8 µM | EKVX 11.7 µM | MOLT-4 11.1 µM | SK-MEL-28 16.3 µM | SNB-19 17.3 µM | NCI-H226 16.9 µM | IGROV-1 15.6 µM | OVCAR-5 14.2 µM

CC1=C(C(=O)Nc2ccc([N+](=O)[O-])cc2)C(c2ccccc2O)C(C(=O)Nc2ccc([N+](=O)[O-])cc2)=C(C)N1
inactive: NCI-H460 21.4 µM | OVCAR-8 28.2 µM | OVCAR-3 20.5 µM | SK-OV-3 21.1 µM | UO-31 15.2 µM | SNB-78 30.5 µM | COLO 205 17.5 µM | EKVX 23.1 µM | MOLT-4 15.2 µM | SK-MEL-28 21.6 µM | KM-20L2 14.5 µM | SNB-19 37.2 µM | NCI-H226 16.6 µM | IGROV-1 25.9 µM | OVCAR-5 16 µM

O=C1c2cnccc2Cc2cccc3c2N1c1ccccc1S3
inactive: OVCAR-3 17.7 µM | HCT-116 19 µM | UACC-62 18 µM | COLO 205 27.4 µM | MOLT-4 28.3 µM | SK-MEL-28 26.1 µM | KM-20L2 17.6 µM | SNB-19 30.9 µM | IGROV-1 28 µM

Cc1cc(N(CCC#N)CCC#N)ccc1/N=N/c1ccccc1[N+](=O)[O-]
inactive: OVCAR-8 > 100 µM | OVCAR-3 > 100 µM | SK-OV-3 > 100 µM | UO-31 > 100 µM | SNB-78 > 100 µM | UACC-62 > 100 µM | COLO 205 > 100 µM | EKVX > 100 µM | MOLT-4 > 100 µM | SK-MEL-28 > 100 µM | NCI-H226 > 100 µM | IGROV-1 > 100 µM | HOP-18 > 100 µM | OVCAR-5 > 100 µM

Cc1cc(C)c(C(=O)O)c(N)c1O
inactive: OVCAR-8 > 100 µM | OVCAR-3 > 100 µM | SK-OV-3 > 100 µM | UO-31 > 100 µM | HCT-116 > 100 µM | UACC-62 > 100 µM | COLO 205 > 100 µM | EKVX > 100 µM | MOLT-4 > 100 µM | SK-MEL-28 > 100 µM | KM-20L2 > 100 µM | SNB-19 > 100 µM | NCI-H226 > 100 µM | IGROV-1 > 100 µM | OVCAR-5 > 100 µM

CN(C)CN(C)c1nc(N(C)C)nc(N(C)CN(C)C)n1
inactive: NCI-H460 57.3 µM | OVCAR-8 27.9 µM | OVCAR-3 > 100 µM | SK-OV-3 > 100 µM | UO-31 > 100 µM | HCT-116 32 µM | UACC-62 19.8 µM | COLO 205 27.8 µM | EKVX > 100 µM | MOLT-4 26.2 µM | SK-MEL-28 25.8 µM | KM-20L2 74.5 µM | SNB-19 > 100 µM | NCI-H226 > 100 µM | IGROV-1 > 100 µM | HOP-18 > 100 µM

COc1cc(C(=O)N2CCc3c([nH]c4c([N+](=O)[O-])c(OC)ccc34)C2C)cc(OC)c1OC (stereo not drawn)
inactive: NCI-H460 > 100 µM | OVCAR-8 > 100 µM | OVCAR-3 > 100 µM | UO-31 > 100 µM | SNB-78 58.7 µM | HCT-116 > 100 µM | UACC-62 20.1 µM | COLO 205 > 100 µM | EKVX > 100 µM | MOLT-4 > 100 µM | SK-MEL-28 > 100 µM | KM-20L2 > 100 µM | SNB-19 > 100 µM | NCI-H226 > 100 µM | IGROV-1 8.11 µM | OVCAR-5 > 100 µM

CC(C)C12Cc3c(ccc4ccccc34)OC1(C)Oc1ccc3ccccc3c1C2 (stereo not drawn)
inactive: NCI-H460 > 100 µM | OVCAR-8 > 100 µM | OVCAR-3 59.7 µM | SK-OV-3 > 100 µM | UO-31 > 100 µM | SNB-78 > 100 µM | HCT-116 > 100 µM | UACC-62 > 100 µM | COLO 205 > 100 µM | EKVX 10.6 µM | MOLT-4 > 100 µM | KM-20L2 > 100 µM | SNB-19 > 100 µM | NCI-H226 > 100 µM | IGROV-1 > 100 µM | OVCAR-5 > 100 µM

CC(=O)OC1CCC2(C)C(CCC3C4CC=C(C5(C)OCCO5)C4(C)CCC32)C1 (stereo not drawn)
inactive: NCI-H460 20 µM | OVCAR-8 20.1 µM | OVCAR-3 19.7 µM | SK-OV-3 47.9 µM | Hs-578T 23.3 µM | UO-31 25.4 µM | MDA-MB-231 33.2 µM | HCT-116 20.1 µM | UACC-62 19.9 µM | COLO 205 17.6 µM | EKVX 21.7 µM | MOLT-4 17.3 µM | SK-MEL-28 21.2 µM | SNB-19 30.2 µM | NCI-H226 25.9 µM | IGROV-1 24.2 µM | OVCAR-5 22.1 µM

Cc1ccc(NC(=O)C2C(=O)N(c3ccc(C)c(C)c3)C(=O)/C2=N\NC(N)=S)cc1C (stereo not drawn)
inactive: OVCAR-3 > 100 µM | SK-OV-3 45 µM | UO-31 56.8 µM | SNB-78 > 100 µM | HCT-116 > 100 µM | UACC-62 50 µM | EKVX > 100 µM | MOLT-4 42.6 µM | SK-MEL-28 > 100 µM | KM-20L2 > 100 µM | SNB-19 29.6 µM | NCI-H226 > 100 µM | IGROV-1 96.4 µM

COc1ccc2c3c(c(C(=O)O)oc13)C(CCC(=O)O)CC2 (stereo not drawn)
inactive: NCI-H460 > 100 µM | OVCAR-8 > 100 µM | OVCAR-3 > 100 µM | SK-OV-3 > 100 µM | SNB-78 > 100 µM | HCT-116 > 100 µM | UACC-62 > 100 µM | COLO 205 > 100 µM | EKVX > 100 µM | SK-MEL-28 > 100 µM | KM-20L2 > 100 µM | SNB-19 > 100 µM | IGROV-1 > 100 µM | HOP-18 > 100 µM

CCCCCCCCCCCCCC(=O)OC1CC(=O)OC1CO (stereo not drawn)
inactive: NCI-H460 34.2 µM | OVCAR-8 > 100 µM | OVCAR-3 33.6 µM | SK-OV-3 > 100 µM | UO-31 32.8 µM | SNB-78 37.8 µM | HCT-116 27.4 µM | UACC-62 19.2 µM | COLO 205 > 100 µM | EKVX > 100 µM | MOLT-4 25.1 µM | KM-20L2 50.7 µM | SNB-19 32.8 µM | IGROV-1 41 µM | HOP-18 21.6 µM | OVCAR-5 > 100 µM

COc1ccc(OC)c(NC(=O)CCC/C(CC(=O)c2ccc(O)c(OC)c2)=N\Nc2nnc(C)n2N)c1
inactive: NCI-H460 > 100 µM | OVCAR-8 > 100 µM | OVCAR-3 > 100 µM | SK-OV-3 > 100 µM | UO-31 > 100 µM | UACC-62 > 100 µM | COLO 205 > 100 µM | EKVX > 100 µM | MOLT-4 > 100 µM | SK-MEL-28 > 100 µM | KM-20L2 > 100 µM | SNB-19 > 100 µM | NCI-H226 > 100 µM | IGROV-1 > 100 µM | HOP-18 > 100 µM | OVCAR-5 > 100 µM

COc1cc2c(cc1OCCCC(=O)Nc1cc(C(=O)Nc3cc(C(=O)Nc4cc(C(=O)NCCCN(C)C)n(C)n4)n(C)n3)n(C)n1)N=CC1CCCN1C2=O (stereo not drawn)
inactive: NCI-H460 41.4 µM | OVCAR-8 32 µM | OVCAR-3 29.9 µM | SK-OV-3 45.2 µM | Hs-578T 39.5 µM | UO-31 4.39 µM | MDA-MB-231 24.2 µM | HCT-116 60.8 µM | UACC-62 20.3 µM | COLO 205 3.53 µM | EKVX > 100 µM | MOLT-4 3.01 µM | SK-MEL-28 13.4 µM | SNB-19 18.3 µM | NCI-H226 28.4 µM | IGROV-1 2.96 µM | OVCAR-5 32.6 µM

NCCNCc1c2ccccc2c(CNCCN)c2ccccc12
inactive: NCI-H460 6.97 µM | OVCAR-8 13.2 µM | OVCAR-3 18.2 µM | UO-31 49.4 µM | SNB-78 12.7 µM | HCT-116 5.18 µM | UACC-62 22 µM | COLO 205 8.17 µM | EKVX 20.2 µM | MOLT-4 3.78 µM | SK-MEL-28 > 10 µM | KM-20L2 10.3 µM | IGROV-1 32.3 µM | HOP-18 25.7 µM | OVCAR-5 27.4 µM

From ChEMBL document CHEMBL1201862, “PubChem BioAssay data set” (2004)
